Earlier results as cited in US9968555B2, “Liposomal formulations that form drug nanocrystals after freeze-thaw” (ARADIGM CORPORATION, priority 2014, dated 2018).
In brackets after ≈: the same amount, converted by molar mass.

Tested on: M. avium

minimum inhibitory concentration (MIC): 5 µg/mL (≈ 15.1 µM)
Structure (SMILES): O=C(O)c1cn(C2CC2)c2cc(N3CCNCC3)c(F)cc2c1=O [ciprofloxacin]
